Measurements taken from patent US20230277564A1, “CANNABINOIDAL COMPOSITIONS FOR THE TREATMENT OF DISEASE” (The State of Israel, Ministry of Agriculture & Rural …, priority 2020, published 2023).

Tests used:
Assay type in all cases: cell-based
[1] = system: IL-8 secreted from A549 cells; experiment: IL-8 secretion from TNFα-treated A549 cells (ELISA); conditions: for IL-8 secretion: at the concentration and ratio found in 10 μg/ml FCBD:std
Description: (§1) Cell cultures—The lung cancer cell line A549 (ATCC® CCL-185™) was cultured in DMEM (01-055-1A, Biological Industries, Israel) growth media supplemented with 10% FBS (04-127-1A, Biological Industries, Israel), 1% […], 1% pen-strep and plasmocin. Macrophage cell line KG1 (ATCC® CCL-246™) was cultured in IMDM (01-058-1A; Biological Industries, Israel) containing 20% FBS and 1% pen-strep and plasmocin. IMDM media supplemented with 10 ng/mL PMA, 5% FBS, 1% pen-strep and plasmocin was used as stimulating environment for the differentiation of KG1 cells. Differentiated cells with typical morphology were attached to the plate surface within 1-2 days of initiation^39.
(§2) Determination of IL levels and cell viability—IL-6 and IL-8 levels were determined as described previously^40 with the following modifications: A549 cells were plated at 5×10^4 cells per well in DMEM complete media (400 μL) in a 24-well cell culture plate. Cells were allowed to attach and incubated with complete DMEM at 37° C. in a humidified atmosphere containing 5% CO2-95% air. Following overnight incubation, cells were treated with 300 ng/mL TNFα with or without plant extract or fraction/compounds. IL-6 and IL-8 secretion levels were analyzed after 4 hours of incubation. Supernatant samples were taken and tested using IL-6 and IL-8 ELISA kits (DY206 and DY208 respectively, R&D Systems, Minneapolis, Minn., USA). Dexamethasone was used as a positive control. For cell viability, an Alamar Blue (resazurin) assay was performed on each well as described previously^40. For dose response assays, data points were connected by non-linear regression lines of the sigmoidal dose-response relation. GraphPad Prism (GraphPad Software Inc., San Diego, USA) was employed to produce dose-response curves and IC50 doses were calculated using nonlinear regression analysis.

[2] = system: IL-6 secreted from A549 cells; experiment: IL-6 secretion from TNFα-treated A549 cells (ELISA); conditions: for IL-6 secretion: at the concentration and ratio found in 10 μg/ml FCBD:std
Description: as §1, §2

CD36 = experiment: qPCR of CD36 mRNA in PMA-treated KG1 cells; conditions: FCBD and FCBD:std 7 μg/mL, Palmitic acid 150 μM, versus vehicle control
Description: as §1
(§3) Quantitative real-time (qRT) PCR—qRT PCR was effected as described^38. Briefly, cells were seeded in a 6-well plate at a concentration of 1.5×10^6 cells in 3 mL per well. Following 24 hours incubation, cells were treated with extract/fraction/compounds for 6 hours. Cells were harvested and RNA was extracted using TRI reagent (T9424, Sigma Aldrich, USA). RNA was reverse-transcribed in a total volume of 20 μL (PB30.11-10; qPCRBIO), according to manufacturer's protocol. PCR was performed in triplicate using qPCR SyGreen Blue Mix (PB20.16-20, qPCRBIO) and a StepOnePlus system (Applied Biosystems). […]

IL-6 = experiment: qPCR of IL-6 mRNA in PMA-treated KG1 cells (differentiated macrophages); conditions: 6 hours, FCBD and FCBD:std 7 μg/mL, Dex 8 μg/mL, relative to control
Description: as §1, §3

CCL2 = experiment: qPCR of CCL2 mRNA in PMA-treated KG1 cells (differentiated macrophages); conditions: 6 hours, FCBD and FCBD:std 7 μg/mL, Dex 8 μg/mL, relative to control
Description: as §1, §3

IL-8 = experiment: qPCR of IL-8 mRNA in PMA-treated KG1 cells (differentiated macrophages); conditions: 6 hours, FCBD and FCBD:std 7 μg/mL, Dex 8 μg/mL, relative to control
Description: as §1, §3

[3] = system: IL-8 secreted from KG1 cells; experiment: IL-8 secretion from KG1 cells treated with TNFα (ELISA); conditions: 300 ng/mL TNFα, 4 hours, FCBD or FCBD:std 10 μg/mL or indicated concentrations, Dex 4 μg/mL
Description: as §1
Determination of IL levels and cell viability—IL-6 and IL-8 levels were determined as described previously^40 with the following modifications: A549 cells were plated at 5×10^4 cells per well in DMEM complete media (400 μL) in a 24-well cell culture plate. Cells were allowed to attach and incubated with complete DMEM at 37° C. in a humidified atmosphere containing 5% CO2-95% air. […] IL-6 and IL-8 secretion levels were analyzed after 4 hours of incubation. […] GraphPad Prism (GraphPad Software Inc., San Diego, USA) was employed to produce dose-response curves and IC50 doses were calculated using nonlinear regression analysis.

[4] = higher or lower concentrations of CBD than 3.0 μg/mL

For Cc1c(C(=O)NN2CCCCC2)nn(-c2ccc(Cl)cc2Cl)c1-c1ccc(I)cc1 [CB1 IA], the “IL-8 levels, inverse agonist alone” value ([1]; treatment with IA only) was “reduction” and the “IL-6 levels, inverse agonist alone” value ([2]; treatment with IA only) was “reduction”.
With C=C(C)[C@@H]1CCC(C)=C[C@H]1c1c(O)cc(CCCCC)cc1O [CBD, cannabidiol] the “IL-8 levels, anti-inflammatory activity” value ([1]; CBD alone at 3.0 μg/mL) was “showed anti-inflammatory activity”, the IL-8 secretion [1] was “did not lead to such a reduction” and the “activity in reducing IL-8 levels” value [1, 4] was “lower and/or non-significant activity”. For the same molecule, the “IL-6 levels, anti-inflammatory activity” value ([2]; CBD alone at 3.0 μg/mL) was “showed anti-inflammatory activity”, the IL-6 secretion [2] was “did not lead to such a reduction” and the “activity in reducing IL-6 levels” value [2, 4] was “lower and/or non-significant activity”.
With CCCCCc1cc(O)c(C/C=C(\C)CCC=C(C)C)c(O)c1 [CBG, cannabigerol] the IL-8 secretion [1] was “did not lead to such a reduction” and the IL-6 secretion [2] was “did not lead to such a reduction”.
With CCCCCCCCCCCCCCCC(=O)O [PA, Palmitic acid] the “mRNA expression of CD36” value (CD36) was “reduced”.
In the case of CCCc1cc(O)c2c(c1)OC(C)(C)[C@@H]1CCC(C)=C[C@@H]21 [THCV, tetrahydrocannabivarin], the IL-8 secretion [1] is reported as “did not lead to such a reduction” and the IL-6 secretion [2] is reported as “did not lead to such a reduction”.
In the case of C[C@@H]1C[C@H]2[C@@H]3CCC4=CC(=O)C=C[C@]4(C)[C@@]3(F)[C@@H](O)C[C@]2(C)[C@@]1(O)C(=O)CO [dexamethasone, Dexamethasone], the “increase of IL-6 mRNA expression level” value (IL-6) is reported as “no effect”, the “increase of CCL2 mRNA expression level” value (CCL2) is reported as “no effect” and the “increase of IL-8 mRNA expression level” value (IL-8) is reported as “no effect”. The “IL-8 secretion from KG1 cells” value [3] was “no effect”.
